US11787780B2 (CORCEPT THERAPEUTICS INCORPORATED, priority 2020, dated 2023)

System: induction of TAT by dexamethasone in HepG2 cells
Assay: Hep G2 TAT assay (inhibition of dexamethasone-induced TAT)
Type: cell-based, human
Conditions: challenge of 100 nM dexamethasone, IC50 converted to Ki by Cheng and Prusoff equation
Procedure: Glucocorticoid mediated activation of TAT occurs by transactivation of glucocorticoid response elements in the TAT promoter by glucocorticoid receptor-agonist complex. The following protocol describes an assay for measuring induction of TAT by dexamethasone in HepG2 cells (a human liver hepatocellular carcinoma cell line; ECACC, UK).
TAT activity was measured as outlined in the literature by A. Ah et al., J. Med. Chem., 2004, 47, 2441-2452.
HepG2 cells were cultured using MEME media supplemented with 10% (v/v) foetal bovine serum; 2 mM L-glutamine and 1% (v/v) NEAA at 37° C., 5%/95% (v/v) CO2/air. The HepG2 cells were counted and adjusted to yield a density of 0.125×10^6 cells/ml in RPMI 1640 without phenol red, 10% (v/v) charcoal stripped FBS, 2 mM L-glutamine and seeded at 25,000 cells/well in 200 μl into 96 well, sterile, tissue culture micro titre plates, and incubated at 37° C., 5% CO2 for 24 hours
Growth media was removed and replaced with assay media {RPMI 1640 without phenol red, 2 mM L-glutamine+10 μM forskolin}. Test compounds were screened against a challenge of 100 nM dexamethasone. Compounds were serially half log diluted in 100% (v/v) dimethylsulphoxide from a 10 mM stock.
Test compounds were pre-incubated with cells in micro-titre plates for 30 minutes at 37° C., 5/95 (v/v) CO2/air, before the addition of 100 nM dexamethasone and then subsequently for 20 hours to allow optimal TAT induction.
HepG2 cells were then lysed with 30 μl of cell lysis buffer containing a protease inhibitor cocktail for 15 minutes at 4° C. […] After 2 hours incubation at 37° C. the reaction was terminated by the addition of 15 μl of 10M aqueous potassium hydroxide solution, and the plates incubated for a further 30 minutes at 37° C. The TAT activity product was measured by absorbance at λ 340 nm.
[compound] and fitting the data to a 4 parameter logistic equation. IC50 values were converted to Ki (equilibrium dissociation constant) using the Cheng and Prusoff equation, assuming the antagonists were competitive inhibitors with respect to dexamethasone.

| Compound | Ki |
| --- | --- |
| Cc1cc2c(cnn2-c2ccc(F)cc2)cc1C1(Cc2ccccc2)CCN(C(=O)c2csc(C(F)(F)F)n2)C1 (stereo not shown) [Example 229, (3-benzyl-3-(1-(4-fluorophenyl)-6-methyl-1H-indazol-5-yl)pyrrolidin-1-yl)(2-(trifluoromethyl)thiazol-4-yl)methanone] | 210 nM |
| Cc1cc2c(cnn2-c2ccc(F)cc2)cc1N1CCN(S(=O)(=O)c2cnn(C3CCOC3)c2)C2(CC2)C1 (stereo not shown) [Example 79] | 84 nM |
| Cc1ncc(CC2(c3cc4cnn(-c5ccc(F)cc5)c4cc3C)CCN(S(=O)(=O)c3cnn(C)c3)C2)s1 (stereo not shown) [Example 227, 5-((3-(1-(4-fluorophenyl)-6-methyl-1H-indazol-5-yl)-1-((1-methyl-1H-pyrazol-4-yl)sulfonyl)pyrrolidin-3-yl)methyl)-2-methylthiazole] | 350 nM |
| Cc1cc2c(cnn2-c2ccc(=O)n(C3CC3)c2)cc1C1(Cc2ccccc2)CCN(S(=O)(=O)c2cnn(C)n2)C1 (stereo not shown) [Example 270, 5-(5-(3-benzyl-1-((2-methyl-2H-1,2,3-triazol-4-yl)sulfonyl)pyrrolidin-3-yl)-6-methyl-1H-indazol-1-yl)-1-cyclopropylpyridin-2(1H)-one] | 600 nM |
| CCCn1cc(S(=O)(=O)N(C)C2(C)CCN(c3cc4cnn(-c5ccc(F)cc5)c4cc3C)C2)cn1 (stereo not shown) [Example 119] | 251 nM |
| Cc1cc2c(cnn2-c2ccc(F)cc2)cc1C1(Cc2ccc3c(c2)nnn3C)CCN(S(C)(=O)=O)C1 (stereo not shown) [Example 183] | 182 nM |
| CCCn1cc(S(=O)(=O)N(C)[C@H]2CCN(c3cc4cnn(-c5ccc(F)cc5)c4cc3OC)C2)cn1 [Example 118] | 1640 nM |
| Cc1cc2c(cnn2-c2ccc(F)cc2)cc1C1(Cc2ccccc2)CCN(C(=O)c2cc(CO)ccn2)C1 (stereo not shown) [Example 200, (3-benzyl-3-(1-(4-fluorophenyl)-6-methyl-1H-indazol-5-yl)pyrrolidin-1-yl)(4-(hydroxymethyl)pyridin-2-yl)methanone] | 59 nM |
| Cc1cc2c(cnn2-c2ccc(=O)n(C)c2)cc1C1(Cc2ccccc2)CCN(S(=O)(=O)c2cnn(CC(F)(F)F)c2)C1 (stereo not shown) [Example 278, 5-(5-(3-benzyl-1-((1-(2,2,2-trifluoroethyl)-1H-pyrazol-4-yl)sulfonyl)pyrrolidin-3-yl)-6-methyl-1H-indazol-1-yl)-1-methylpyridin-2(1H)-one] | 44 nM |
| Cc1cc2c(cnn2-c2ccc(F)cc2)cc1C1(Cc2ccccc2)CCN(C(=O)c2cncnc2)C1 (stereo not shown) [Example 196, (3-benzyl-3-(1-(4-fluorophenyl)-6-methyl-1H-indazol-5-yl)pyrrolidin-1-yl)(pyrimidin-5-yl)methanone] | 79 nM |
| CCCn1cc(S(=O)(=O)N2CCC(c3cc4cnn(-c5ccc(F)cc5)c4cc3C)C(C)C2)cn1 (stereo not shown) [Example 26, 1-(4-fluorophenyl)-6-methyl-5-(3-methyl-1-((1-propyl-1H-pyrazol-4-yl)sulfonyl)piperidin-4-yl)-1H-indazole] | 50 nM |
| C#CCC1(c2cc3cnn(-c4ccc(F)cc4)c3cc2C)CCN(S(C)(=O)=O)C1 (stereo not shown) [Example 184] | 252 nM |
| CCCn1cc(S(=O)(=O)N2CCC(Cc3ccccc3)(c3cc4cnn(-c5ccc(F)cc5)c4cc3Cl)C2)cn1 (stereo not shown) [Example 224, 5-(3-benzyl-1-((1-propyl-1H-pyrazol-4-yl)sulfonyl)pyrrolidin-3-yl)-6-chloro-1-(4-fluorophenyl)-1H-indazole] | 21 nM |
| Cc1cc2c(cnn2-c2ccn(C)c(=O)c2)cc1C1(Cc2ccccc2)CCN(S(=O)(=O)c2cnn(C)n2)C1 (stereo not shown) [Example 244, 4-(5-(3-benzyl-1-((2-methyl-2H-1,2,3-triazol-4-yl)sulfonyl)pyrrolidin-3-yl)-6-methyl-1H-indazol-1-yl)-1-methylpyridin-2(1H)-one] | 840 nM |
| CCn1cc(-n2ncc3cc(C4(Cc5ccccc5)CCN(S(=O)(=O)c5cnn(C)n5)C4)c(C)cc32)ccc1=O (stereo not shown) [Example 268, 5-(5-(3-benzyl-1-((2-methyl-2H-1,2,3-triazol-4-yl)sulfonyl)pyrrolidin-3-yl)-6-methyl-1H-indazol-1-yl)-1-ethylpyridin-2(1H)-one] | 160 nM |
| CCCn1cc(S(=O)(=O)N2CC=C(c3cc4cnn(-c5cccc(C(=O)NC6CCOC6)c5)c4cc3C)CC2)cn1 (stereo not shown) [Example 145] | 208 nM |

| Compound | Ki |
| --- | --- |
| Cc1cc2c(cnn2-c2ccc(=O)n(C(C)C)c2)cc1C1(Cc2ccccc2)CCN(S(=O)(=O)c2cnn(C)n2)C1 (stereo not shown) [Example 269, 5-(5-(3-benzyl-1-((2-methyl-2H-1,2,3-triazol-4-yl)sulfonyl)pyrrolidin-3-yl)-6-methyl-1H-indazol-1-yl)-1-isopropylpyridin-2(1H)-one] | 1300 nM |
| CCCn1cc(S(=O)(=O)N2CCC(Cc3ccccc3)(c3cc4cnn(C5CCC(=O)N(C)C5)c4cc3C)C2)cn1 (stereo not shown) [Example 273, 5-(5-(3-benzyl-1-((1-propyl-1H-pyrazol-4-yl)sulfonyl)pyrrolidin-3-yl)-6-methyl-1H-indazol-1-yl)-1-methylpiperidin-2-one] | 280 nM |
| Cc1cc2c(cnn2-c2ccc(=O)n(C)c2)cc1C1(Cc2ccccc2)CCN(S(=O)(=O)c2nccn2C)C1 (stereo not shown) [Example 285, 5-(5-(3-benzyl-1-((1-methyl-1H-imidazol-2-yl)sulfonyl)pyrrolidin-3-yl)-6-methyl-1H-indazol-1-yl)-1-methylpyridin-2(1H)-one] | 82 nM |
| Cc1cc(CC(=O)N2CCC(Cc3ccccc3)(c3cc4cnn(-c5ccc(F)cc5)c4cc3C)C2)on1 (stereo not shown) [Example 197, 1-(3-benzyl-3-(1-(4-fluorophenyl)-6-methyl-1H-indazol-5-yl)pyrrolidin-1-yl)-2-(3-methylisoxazol-5-yl)ethan-1-one] | 65 nM |
| Cc1cc2c(cnn2-c2ccc(F)cc2)cc1C1(Cc2ccccc2)CCN(C(=O)c2ccnnc2)C1 (stereo not shown) [Example 195, (3-benzyl-3-(1-(4-fluorophenyl)-6-methyl-1H-indazol-5-yl)pyrrolidin-1-yl)(pyridazin-4-yl)methanone] | 70 nM |
| CCCn1cc(S(=O)(=O)N2C[C@H](C)N(c3cc4cnn(-c5ccc(F)cc5)c4cc3C)C[C@@H]2C)cn1 [Example 81] | 58 nM |
| COc1cc(OCCCC(=O)N2CCC(Cc3ccccc3)(c3cc4cnn(-c5ccc(F)cc5)c4cc3C)C2)ccc1CO (stereo not shown) [Example 199, 1-(3-benzyl-3-(1-(4-fluorophenyl)-6-methyl-1H-indazol-5-yl)pyrrolidin-1-yl)-4-(4-(hydroxymethyl)-3-methoxyphenoxy)butan-1-one] | 33 nM |
| Cc1cc2c(cnn2-c2ccc(=O)n(C)c2)cc1C1(Cc2ccccc2)CCN(S(=O)(=O)c2cnn(C)c2C)C1 (stereo not shown) [Example 284, 5-(5-(3-benzyl-1-((1,5-dimethyl-1H-pyrazol-4-yl)sulfonyl)pyrrolidin-3-yl)-6-methyl-1H-indazol-1-yl)-1-methylpyridin-2(1H)-one] | 58 nM |
| O=C1CC(Cc2ccccc2)(c2cc3cnn(-c4ccc(F)cc4)c3cc2Cl)C(=O)N1Cc1ccccc1 (stereo not shown) [Example 228, 1,3-dibenzyl-3-(6-chloro-1-(4-fluorophenyl)-1H-indazol-5-yl)pyrrolidine-2,5-dione] | 28 nM |
| Cc1cc2c(cnn2-c2ccc(F)cc2)cc1C1(CCc2ccccc2)CCN(S(=O)(=O)c2cnn(C)c2)C1 (stereo not shown) [Example 343, 1-(4-fluorophenyl)-6-methyl-5-(1-((1-methyl-1H-pyrazol-4-yl)sulfonyl)-3-phenethylpyrrolidin-3-yl)-1H-indazole] | 120 nM |
| CS(=O)(=O)N1CCC(Cc2ccccc2)(c2ccc3c(cnn3-c3ccc(F)cc3)c2)C1 (stereo not shown) [Example 157] | 257 nM |
| Cc1cc2c(cnn2-c2cc(C#N)c(=O)n(C)c2)cc1C1(Cc2ccccc2)CCN(S(=O)(=O)c2cnn(C)n2)C1 (stereo not shown) [Example 245, 5-(5-(3-benzyl-1-((2-methyl-2H-1,2,3-triazol-4-yl)sulfonyl)pyrrolidin-3-yl)-6-methyl-1H-indazol-1-yl)-1-methyl-2-oxo-1,2-dihydropyridine-3-carbonitrile] | 190 nM |
| Cn1ncc(S(=O)(=O)N2CCC(Cc3ccccc3)(c3cc4cnn(-c5ccc(=O)n(C)c5)c4cc3Cl)C2)n1 (stereo not shown) [Example 277, 5-(5-(3-benzyl-1-((2-methyl-2H-1,2,3-triazol-4-yl)sulfonyl)pyrrolidin-3-yl)-6-chloro-1H-indazol-1-yl)-1-methylpyridin-2(1H)-one] | 54 nM |
| Cc1cc2c(cnn2-c2ccc(=O)n(C)c2)cc1C1(Cc2ccccc2)CCN(S(=O)(=O)c2cnn(CC(C)C)c2)C1 (stereo not shown) [Example 319, 5-(5-(3-benzyl-1-((1-isobutyl-1H-pyrazol-4-yl)sulfonyl)pyrrolidin-3-yl)-6-methyl-1H-indazol-1-yl)-1-methylpyridin-2(1H)-one] | 46 nM |
| Cc1cc2c(cnn2-c2ccc(F)cc2)cc1N1C[C@@H]2CN(S(=O)(=O)c3cnn(C)c3)C[C@@H]2C1 [Example 92] | 495 nM |
